Experimental data: patent US9168268B1, “Saponins and chromans derivatives mixture compositions against leishmaniasis, Trypanosomiasis americana, malaria, Trypanosomiasis africana and Fasciola hepatica” (UNIVERSIDAD DE ANTIOQUIA, priority 2013, dated 2015)

Tested on: L. amazonensis
Assay: In vivo therapeutic response of hamsters experimentally infected with L. amazonensis (hamster model for cutaneous leishmaniasis)
Conditions: for cure rate: hamster model for cutaneous leishmaniasis, L. amazonensis, outcome at end of study (3 months after the end of treatment); for lesion size compared between treatment groups: hamsters infected with L. amazonensis, from the second month after the end of treatment to the end of the study; for activity against Leishmania parasites: leishmanicidal activity as shown in FIG. 4 and FIG. 5
Procedure: The formulation has been tested in vitro and in vivo for their leishmaninicidal activity.
A. TC1 (1.13 mg), B TC1 (4.01%), C: TC2 (1.35 mg), D: TC2 (3.0%), E: TC3 (1.72 mg), F: TC4 (1.25 mg), G: TC4 (4.03%), H: TC18 (3.0%), I: Mixture 1A, 2A, 3A (4.14%), J: Mixture 1A, 2A, 3A (7.77%), K: meglumina antimoniate (1209 mg), L: Vehicle (100 μl) and M: Vehicle (40 mg).
A. TC1 (1.13 mg), B TC1 (4.01%), C: TC2 (1.35 mg), D: TC2 (3.0%), E: TC3 (1.72 mg), F: TC4 (1.25 mg), G: TC4 (4.03%), H: TC18 (3.0%), I: Mixture 1A, 2A, 3A (4.14%), J: Mixture 1A, 2A, 3A (7.77%), K: meglumina antimoniate (1209 mg), L: Vehicle (100 μl) and M: Vehicle (40 mg). BoT: Beginning of Treatment; EoT: End of treatment. 1mAEoT: 1 month after the end of treatment, 2mAEoT: 2 months after the end of treatment, 3mAEoT: 3 months after the end of treatment. […] The efficacy may be increased using other dose or therapeutic schemes.

Row | SMILES | cure rate | lesion size compared between treatment groups | activity against Leishmania parasites
1 | O=C(N/N=C1\CCSc2ccccc21)c1ccccc1 [TC1, Benzoic acid, 2-(2,3-dihydro-4H-1-benzothiopyran-4-ylidene)hydrazide] | 77% | lowest lesion size | exhibited activity
2 | O=C(N/N=C1\CCSc2ccccc21)c1ccncc1 [TC2, 4-Pyridinecarboxylic acid, 2-(2,3-dihydro-4H-1-benzothiopyran-4-ylidene)hydrazid] | – | lowest lesion size | exhibited activity
3 | O=C1CCS(=O)(=O)c2ccccc21 [TC18, Thiochroman-4-one, 1,1-dioxide] | 63% | – | exhibited activity
